# Measurements taken from ChEMBL document CHEMBL1201862, “PubChem BioAssay data set” (2004).
# Where “and” joins values, the source holds several entries; their conditions need not be identical. Identical values can stand only once.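 Assay format: 96-well plates, 48-hour exposure. GI50 = concentration required for 50% inhibition of growth.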 Calls of active or inactive are those of the source. Cut-off read from the data, not from the text of the source: active = GI50 up to about 1.1 µM and inactive = higher.
# Tests used:
# Assay in all cases: NCI tumour cell line growth inhibition, 48 h
# [1] = test system: SN12C
# [2] = test system: A498
# [3] = test system: MOLT-4
# [4] = test system: COLO 205
# [5] = test system: RXF 631
# [6] = test system: UACC-62
# [7] = test system: SF-268
# [8] = test system: LXFL 529
# [9] = test system: A549
# [10] = test system: SNB-78
# [11] = test system: HOP-62
# [12] = test system: NCI-H226
# [13] = test system: OVCAR-4
# [14] = test system: HCT-15
# [15] = test system: K562
# [16] = test system: Malme-3M
# [17] = test system: SK-OV-3
# [18] = test system: SNB-75
# [19] = test system: DLD-1
# [20] = test system: OVCAR-8
# [21] = test system: EKVX
# [22] = test system: XF498
# [23] = test system: LOX IMVI
# [24] = test system: HOP-18
# [25] = test system: KM-20L2
# [26] = test system: 786-0
# [27] = test system: OVCAR-5
# [28] = test system: DMS-273
# [29] = test system: CCRF-CEM
# [30] = test system: DMS-114
# [31] = test system: SK-MEL-2
# [32] = test system: SF-295
# [33] = test system: UO-31
# [34] = test system: M19-MEL
# [35] = test system: SNB-19
# [36] = test system: HT-29
# [37] = test system: SK-MEL-5
# [38] = test system: HOP-92
# [39] = test system: OVCAR-3
# [40] = test system: RPMI-8226
# [41] = test system: SR
# [42] = test system: NCI-H522
# [43] = test system: U-251
# [44] = test system: ACHN
# [45] = test system: CAKI-1
# [46] = test system: NCI-H23
# [47] = test system: NCI-H460
# [48] = test system: HCT-116
# [49] = test system: IGROV-1
# [50] = test system: TK-10
# [51] = test system: SK-MEL-28
# [52] = test system: KM12
# [53] = test system: SF-539
# [54] = test system: HCC 2998
# [55] = test system: M14
# [56] = test system: SW-620
# [57] = test system: HL-60
# [58] = test system: UACC-257
# [59] = test system: RXF 393
structure (smiles),measurement,setting,value
C/C=C(/CCC1NCCc2c1[nH]c1ccccc21)[Si](C)(C)C (stereo unspecified),GI50,[1],5.61 µM (inactive)
same,GI50,[2],19.2 µM (inactive) and 11.3 µM (inactive)
same,GI50,[3],37.2 µM (inactive) and 2.37 µM (inactive)
same,GI50,[4],1.94 µM (inactive)
same,GI50,[5],58.5 µM (inactive) and 6.87 µM (inactive)
same,GI50,[6],78.9 µM (inactive) and 12.8 µM (inactive)
same,GI50,[7],10.9 µM (inactive)
same,GI50,[8],1.85 µM (inactive)
same,GI50,[9],14.2 µM (inactive)
same,GI50,[10],11.6 µM (inactive)
same,GI50,[11],13.5 µM (inactive)
same,GI50,[12],13.8 µM (inactive)
same,GI50,[13],81.7 µM (inactive) and 4.11 µM (inactive)
same,GI50,[14],6.27 µM
same,GI50,[15],29.2 µM (inactive) and 2.49 µM (inactive)
same,GI50,[16],33.3 µM (inactive) and 1.78 µM (inactive)
same,GI50,[17],13.4 µM (inactive)
same,GI50,[18],95.3 µM (inactive) and 6.17 µM (inactive)
same,GI50,[19],8.3 µM (inactive)
same,GI50,[20],8.97 µM (inactive)
same,GI50,[21],7.85 µM (inactive)
same,GI50,[22],74.3 µM (inactive) and 1.73 µM (inactive)
same,GI50,[23],4.42 µM (inactive)
same,GI50,[24],11.9 µM (inactive)
CC1=C(CC2C(=O)N(c3ccccc3)S(=O)(=O)NC2C)C(=O)N(c2ccccc2)S(=O)(=O)N1C (stereo unspecified),GI50,[25],> 100 µM (inactive)
same,GI50,[1],> 100 µM (inactive)
same,GI50,[26],> 100 µM (inactive)
same,GI50,[3],> 100 µM (inactive)
same,GI50,[27],> 100 µM (inactive)
same,GI50,[4],> 100 µM (inactive)
same,GI50,[28],> 100 µM (inactive)
same,GI50,[5],> 100 µM (inactive)
same,GI50,[6],> 100 µM (inactive)
same,GI50,[29],> 100 µM (inactive)
same,GI50,[7],> 100 µM (inactive)
same,GI50,[30],> 100 µM (inactive)
same,GI50,[8],> 100 µM (inactive)
same,GI50,[9],> 100 µM (inactive)
same,GI50,[31],> 100 µM (inactive)
same,GI50,[32],> 100 µM (inactive)
same,GI50,[10],> 100 µM (inactive)
same,GI50,[33],> 100 µM (inactive)
same,GI50,[34],> 100 µM (inactive)
same,GI50,[35],> 100 µM (inactive)
same,GI50,[11],> 100 µM (inactive)
same,GI50,[36],> 100 µM (inactive)
same,GI50,[37],> 100 µM (inactive)
same,GI50,[38],> 100 µM (inactive)
same,GI50,[39],> 100 µM (inactive)
same,GI50,[40],> 100 µM (inactive)
same,GI50,[12],> 100 µM (inactive)
same,GI50,[13],> 100 µM (inactive)
same,GI50,[14],> 100 µM
same,GI50,[41],> 100 µM (inactive)
same,GI50,[42],> 100 µM (inactive)
same,GI50,[15],> 100 µM (inactive)
same,GI50,[16],> 100 µM (inactive)
same,GI50,[43],> 10 µM (inactive)
same,GI50,[17],> 100 µM (inactive)
same,GI50,[18],> 100 µM (inactive)
same,GI50,[44],> 100 µM (inactive)
same,GI50,[45],> 100 µM (inactive)
same,GI50,[19],> 100 µM (inactive)
same,GI50,[46],> 100 µM (inactive)
same,GI50,[47],> 100 µM (inactive)
same,GI50,[20],> 100 µM (inactive)
same,GI50,[48],> 100 µM (inactive)
same,GI50,[21],> 100 µM (inactive)
same,GI50,[49],> 100 µM (inactive)
same,GI50,[50],> 100 µM (inactive)
same,GI50,[51],> 100 µM (inactive)
same,GI50,[52],> 100 µM (inactive)
same,GI50,[22],> 100 µM (inactive)
same,GI50,[23],> 100 µM (inactive)
same,GI50,[53],> 100 µM (inactive)
same,GI50,[54],> 100 µM (inactive)
same,GI50,[55],> 100 µM (inactive)
same,GI50,[56],> 100 µM (inactive)
COc1ccc(Br)c(CN2CCc3ccccc32)c1OS(=O)(=O)c1ccc(C)cc1,GI50,[1],76 µM (inactive)
same,GI50,[26],23.7 µM (inactive)
same,GI50,[3],29.3 µM (inactive)
same,GI50,[57],5.15 µM (inactive)
same,GI50,[27],> 100 µM (inactive)
same,GI50,[4],11.9 µM (inactive)
same,GI50,[5],34.4 µM (inactive)
same,GI50,[29],21.4 µM (inactive)
same,GI50,[7],23.7 µM (inactive)
same,GI50,[30],18.3 µM (inactive)
same,GI50,[9],8.17 µM (inactive)
same,GI50,[31],21.8 µM (inactive)
same,GI50,[32],19.5 µM (inactive)
same,GI50,[10],23.3 µM (inactive)
same,GI50,[33],51.2 µM (inactive)
same,GI50,[34],4.03 µM (inactive)
same,GI50,[35],42.5 µM (inactive)
same,GI50,[38],18 µM (inactive)
same,GI50,[39],5.07 µM (inactive)
same,GI50,[40],26.3 µM (inactive)
same,GI50,[12],> 100 µM (inactive)
same,GI50,[58],48.2 µM (inactive)
same,GI50,[14],25.1 µM
same,GI50,[41],43.7 µM (inactive)
same,GI50,[42],4.39 µM (inactive)
same,GI50,[15],4.75 µM (inactive)
same,GI50,[16],45.2 µM (inactive)
same,GI50,[18],19.2 µM (inactive)
same,GI50,[44],14.7 µM (inactive)
same,GI50,[19],15.3 µM (inactive)
same,GI50,[46],23.9 µM (inactive)
same,GI50,[59],8.67 µM (inactive)
same,GI50,[20],47.5 µM (inactive)
same,GI50,[21],58.7 µM (inactive)
same,GI50,[50],8.02 µM (inactive)
same,GI50,[51],46 µM (inactive)
same,GI50,[52],7.66 µM (inactive)
same,GI50,[22],12.4 µM (inactive)
same,GI50,[53],15.6 µM (inactive)
same,GI50,[54],6.31 µM (inactive)
same,GI50,[55],13.9 µM (inactive)
same,GI50,[56],16.3 µM (inactive)
same,GI50,[24],> 100 µM (inactive)
